BindingDB's records for doi:10.1021/jm301258w (University of Innsbruck, 2012)

How the values were obtained:
[1] = Agonist activity at human dopamine D3 receptor expressed in CHOp cells assessed as stimulation of mitogenesis incubated for 24 hrs by [3H]thymidine incorporation assay
[2] = Antagonist activity at human dopamine D2 receptor expressed in CHOp cells assessed as inhibition of quinpirol-induced mitogenesis incubated for 24 hrs by [3H]thymidine incorporation assay
[3] = Antagonist activity at human dopamine D3 receptor expressed in CHOp cells assessed as inhibition of quinpirol-induced mitogenesis incubated for 24 hrs by [3H]thymidine incorporation assay

SMILES	EC50 [1] [nM]	IC50 [2] [nM]	IC50 [3] [nM]
CCCN(CCc1ccccc1)CCc1cccc(O)c1	5.3	–	–
Oc1cccc(CCN(CCc2ccccc2)CC2CCC2)c1	> 10000	1650	953
Oc1cccc(CCN(CCc2ccccc2)CC2CC2)c1	32	–	–
CCCCCCN(CCc1ccccc1)CCc1cccc(O)c1	–	1250	–
